# According to patent US11358931B2, “Selective androgen receptor modulators (SARMs) and uses thereof” (priority 2007, dated 2022):
# Key:
# [1] = Pharmacokinetics in Sprague Dawley rats, repeat oral administration for 15 days; type: in vivo, rat; conditions: for AUC(0-inf) / Cmax / Tmax / half-life / AUC: Sprague-Dawley, rat, plasma, po, SD rats; for AUC: read-out: AUC24
# Experimental: The pharmacokinetics of Compound 102 following repeat oral administration for 15 days was evaluated in Sprague-Dawley rats. A total of 30 rats (15 males and 15 females) were divided into three dose groups (5 males/5 females). Compound 102 was suspended in a vehicle of 2% […]: 0.5% carboxymethyl cellulose (high viscosity) (50:50, v/v) at concentrations of 0.25, 0.75 and 2.5 mg/mL and animals were dosed via oral gavage at 1, 3 and 10 mg/kg once daily for 15 days. Tap water and a diet of rodent chow were provided to the animals ad libitum.
# Blood samples were collected on Day 1 and Day 15. Approximately 0.25 mL of blood was collected from each animal via jugular cannula on Day 1 and from tail vein on Day 15. Blood samples were taken 1, 2, 4, 8, 12 and 24 hr postdose. Each blood sample was collected into tubes containing lithium heparin and kept on wet ice pending centrifugation (max 2 hrs). Samples were centrifuged under refrigeration (2°−8° C. at 3000 g) for 10 minutes. Plasma was transferred into a pre-labeled tube (approximately 125 μL) placed on dry ice and stored frozen at −70° C. until analysis.
# 50 μL of plasma was extracted with 250 μL of acetonitrile and the plasma concentration of Compound 102 was determined by an LC-MS/MS method. The plasma concentration time data were analyzed by a non-compartmental pharmacokinetic method using WinNonlin. The results for pharmacokinetics (Mean±SD, n=5) is shown in Table 3 (Day 1) and Table 4 (Day 15).
# [2] = Pharmacokinetics in orchidectomized male rats (plasma, Day 14); type: in vivo; conditions: rat, ORX male rats; for AUC: male, po; for Cmax / Tmax: PO
# Description: In this assay, two-month old rats were acclimated in a vivarium for one week. After this acclimation period, rats were surgically orchidectomized under isoflurane anesthesia and left untreated for 14 days. After 14 days, animals were sorted into groups such that no statistically significant differences in mean body weights were observed. Rats began receiving treatment 14 days after the day of surgery. Sham-operated and orchidectomized rats, treated with vehicle, served as controls. The different test groups were treated with various doses of Compound 102 (0.03 to 100 mg/kg/day per os (by mouth)). Dosages included 0.03, 0.1, 0.3, 1, 3, 10, 30 and 100 mg/kg/day. Ostarine, a non-steroidal androgenic drug (Evans et al., J Clin Oncology 25: 9119 (2007)) was dosed at dosages similar to other test groups as a comparison. After the 14th dose, venous blood was collected at 0, 1, 2, 4 and 6 hours after dosing. The blood samples were collected in EDTA-containing tubes (Becton Dickinson, Franklin Lakes, N.J.). Approximately 24 hours after the last dose, animals were euthanized and seminal vesicle weights, ventral prostate weights, levator ani weights, preputial gland weights and blood samples were collected on necropsy.
# The determination of plasma concentration was done by an LC-MS/MS method. The standard solution of each drug was spiked in blank rat plasma, calibration standards were constructed from 0.0001 μg/mL to 10 μg/mL; and 50 μL of each calibration standard was extracted with 250 μL of acetonitrile containing 10 ng/mL of internal standard in a 96-well plate. Also, 50 μL of plasma sample was extracted with 250 μL of acetonitrile containing internal standard in a 96-well plate.
# Peak pharmacokinetic (PK) parameters were calculated and rounded to three decimal places.
# [3] = female, 1 mg/kg, oral gavage once daily, Day 15, 1 mg/kg, Female
# [4] = female, 1 mg/kg, oral gavage, Day 1, 1 mg/kg, Female
# [5] = female, 3 mg/kg, oral gavage once daily, Day 15, 3 mg/kg, Female, n = 3
# [6] = female, 3 mg/kg, oral gavage, Day 1, 3 mg/kg, Female
# [7] = female, 10 mg/kg, oral gavage once daily, Day 15, 10 mg/kg, Female, n = 4
# [8] = female, 10 mg/kg, oral gavage, Day 1, 10 mg/kg, Female
# [9] = male, 1 mg/kg, oral gavage once daily, Day 15, 1 mg/kg, Male, n = 4
# [10] = male, 1 mg/kg, oral gavage, Day 1, 1 mg/kg, Male
# [11] = male, 3 mg/kg, oral gavage once daily, Day 15, 3 mg/kg, Male
# [12] = male, 3 mg/kg, oral gavage, Day 1, 3 mg/kg, Male
# [13] = male, 10 mg/kg, oral gavage once daily, Day 15, 10 mg/kg, Male, n = 2
# [14] = male, 10 mg/kg, oral gavage, Day 1, 10 mg/kg, Male
smiles,measurement,setting,value
"N#Cc1ccc(N2CCC[C@@H]2[C@@H](O)C(F)(F)F)cc1C(F)(F)F [Compound 102, R,R-4-(2-(1-Hydroxyl-2,2,2-trifluoroethyl)-pyrrolidinyl)-2-trifluoromethyl-benzonitrile]",dose dependence of systemic exposure,"[1]; 1, 3 and 10 mg/kg dose levels",dose proportional increase of systemic exposure
same,sex difference of systemic exposure,[1]; Day 1 and Day 15,Female rats showed higher systemic exposure than male rats
same,AUC(0-inf),[1]; [3],443 ng·h/mL
same,Cmax,[1]; [3],45 ng/mL
same,Tmax,[1]; [3],1.8 h
same,half-life,[1]; [3],4.6 h
same,AUC,[1]; [3],428 ng·h/mL
same,AUC(0-inf),[1]; [4],436 ng·h/mL
same,Cmax,[1]; [4],41 ng/mL
same,Tmax,[1]; [4],1.4 h
same,half-life,[1]; [4],5.4 h
same,AUC,[1]; [4],413 ng·h/mL
same,AUC(0-inf),[1]; [5],1160 ng·h/mL
same,Cmax,[1]; [5],139 ng/mL
same,Tmax,[1]; [5],1.8 h
same,half-life,[1]; [5],3.7 h
same,AUC,[1]; [5],1000 ng·h/mL
same,AUC(0-inf),[1]; [6],1260 ng·h/mL
same,Cmax,[1]; [6],129 ng/mL
same,Tmax,[1]; [6],2.6 h
same,half-life,[1]; [6],4.8 h
same,AUC,[1]; [6],1210 ng·h/mL
same,AUC(0-inf),[1]; [7],4540 ng·h/mL
same,Cmax,[1]; [7],389 ng/mL
same,Tmax,[1]; [7],2 h
same,half-life,[1]; [7],5.4 h
same,AUC,[1]; [7],4280 ng·h/mL
same,AUC(0-inf),[1]; [8],4210 ng·h/mL
same,Cmax,[1]; [8],366 ng/mL
same,Tmax,[1]; [8],1.4 h
same,half-life,[1]; [8],5.6 h
same,AUC,[1]; [8],3960 ng·h/mL
same,AUC(0-inf),[1]; [9],297 ng·h/mL
same,Cmax,[1]; [9],52 ng/mL
same,Tmax,[1]; [9],1.3 h
same,half-life,[1]; [9],4.6 h
same,AUC,[1]; [9],288 ng·h/mL
same,AUC(0-inf),[1]; [10],1110 ng·h/mL
same,Cmax,[1]; [10],14 ng/mL
same,Tmax,[1]; [10],1.2 h
same,half-life,[1]; [10],5.2 h
same,AUC,[1]; [10],104 ng·h/mL
same,AUC(0-inf),[1]; [11],893 ng·h/mL
same,Cmax,[1]; [11],133 ng/mL
same,Tmax,[1]; [11],1.2 h
same,half-life,[1]; [11],4.1 h
same,AUC,[1]; [11],876 ng·h/mL
same,AUC(0-inf),[1]; [12],341 ng·h/mL
same,Cmax,[1]; [12],51 ng/mL
same,Tmax,[1]; [12],1.2 h
same,half-life,[1]; [12],4.6 h
same,AUC,[1]; [12],318 ng·h/mL
same,AUC(0-inf),[1]; [13],2670 ng·h/mL
same,Cmax,[1]; [13],345 ng/mL
same,Tmax,[1]; [13],1.5 h
same,half-life,[1]; [13],3.9 h
same,AUC,[1]; [13],2620 ng·h/mL
same,AUC(0-inf),[1]; [14],1300 ng·h/mL
same,Cmax,[1]; [14],176 ng/mL
same,Tmax,[1]; [14],1.2 h
same,half-life,[1]; [14],3.5 h
same,AUC,[1]; [14],1290 ng·h/mL
same,AUC,"[2]; 0.01 mg/kg, Day 14, 0.01 mg/kg, 0 hr conc. substituted for 24 hr, read-out: AUC24",15 ng·h/mL
same,AUC,"[2]; 0.01 mg/kg, Day 14, 0.01 mg/kg, read-out: AUC6",4 ng·h/mL
same,AUC,"[2]; 0.03 mg/kg, Day 14, 0.03 mg/kg, 0 hr conc. substituted for 24 hr, read-out: AUC24",5 ng·h/mL
same,AUC,"[2]; 0.03 mg/kg, Day 14, 0.03 mg/kg, read-out: AUC6",2 ng·h/mL
same,AUC,"[2]; 0.3 mg/kg, Day 14, 0.3 mg/kg, 0 hr conc. substituted for 24 hr, read-out: AUC24",42 ng·h/mL
same,AUC,"[2]; 0.3 mg/kg, Day 14, 0.3 mg/kg, read-out: AUC6",18 ng·h/mL
same,AUC,"[2]; 1 mg/kg, Day 14, 1 mg/kg, 0 hr conc. substituted for 24 hr, read-out: AUC24",123 ng·h/mL
same,AUC,"[2]; 1 mg/kg, Day 14, 1 mg/kg, read-out: AUC6",63 ng·h/mL
same,AUC,"[2]; 3 mg/kg, Day 14, 3 mg/kg, 0 hr conc. substituted for 24 hr, read-out: AUC24",234 ng·h/mL
same,AUC,"[2]; 3 mg/kg, Day 14, 3 mg/kg, read-out: AUC6",113 ng·h/mL
same,AUC,"[2]; 10 mg/kg, Day 14, 10 mg/kg, 0 hr conc. substituted for 24 hr, read-out: AUC24",764 ng·h/mL
same,AUC,"[2]; 10 mg/kg, Day 14, 10 mg/kg, read-out: AUC6",370 ng·h/mL
same,AUC,"[2]; 30 mg/kg, Day 14, 30 mg/kg, 0 hr conc. substituted for 24 hr, read-out: AUC24",1880 ng·h/mL
same,AUC,"[2]; 30 mg/kg, Day 14, 30 mg/kg, read-out: AUC6",645 ng·h/mL
same,AUC,"[2]; 100 mg/kg, Day 14, 100 mg/kg, 0 hr conc. substituted for 24 hr, read-out: AUC24",4050 ng·h/mL
same,AUC,"[2]; 100 mg/kg, Day 14, 100 mg/kg, read-out: AUC6",998 ng·h/mL
same,Cmax,"[2]; Day 14, 0.01 mg/kg",2 ng/mL
same,Tmax,"[2]; Day 14, 0.01 mg/kg",2.8 h
same,Cmax,"[2]; Day 14, 0.03 mg/kg",1 ng/mL
same,Tmax,"[2]; Day 14, 0.03 mg/kg",2 h
same,Cmax,"[2]; Day 14, 0.3 mg/kg",12 ng/mL
same,Tmax,"[2]; Day 14, 0.3 mg/kg",1.3 h
same,Cmax,"[2]; Day 14, 1 mg/kg",18 ng/mL
same,Tmax,"[2]; Day 14, 1 mg/kg",2.5 h
same,Cmax,"[2]; Day 14, 3 mg/kg",36 ng/mL
same,Tmax,"[2]; Day 14, 3 mg/kg",1.3 h
same,Cmax,"[2]; Day 14, 10 mg/kg",111 ng/mL
same,Tmax,"[2]; Day 14, 10 mg/kg",1.8 h
same,Cmax,"[2]; Day 14, 30 mg/kg",205 ng/mL
same,Tmax,"[2]; Day 14, 30 mg/kg",4.3 h
same,Cmax,"[2]; Day 14, 100 mg/kg",321 ng/mL
same,Tmax,"[2]; Day 14, 100 mg/kg",3.5 h
